Where “and” joins values, the source holds several entries; their conditions need not be identical. Identical values can stand only once. Counter-ions that a name gives are not always drawn. Like-named read-outs stand apart in the source and are kept apart here.
Test system: 60 cancer cell lines (NCI 60 cancer cell line series)
Experiment: NCI-DTP in vitro cancer screen, sulforhodamine B (SRB) growth inhibition, 48 hour exposure
Format: cell-based, human
Set-up: key to sensitivity class Ovarian OVCAR-8 CL6005 / sensitivity class Ovarian SK-OV-3 CL6011 / sensitivity class Prostate DU-145 CL11003 / sensitivity class NSCLC NCI-H522 CL1003 / sensitivity class Ovarian IGROV1 CL6010 / sensitivity class Ovarian OVCAR-4 CL6002 / sensitivity class Prostate PC-3(I) CL11001 / sensitivity class Renal A498 CL9013 / sensitivity class Renal SN12C CL9008: sensitivity class: 1 = Low, 2 = Medium, 3 = High
Description: Cancer Cell Line Preparation. Sixty cancer cell lines were obtained from the National Cancer Institute Developmental Therapeutics Program (NCI-DTP). Procedures for growing cells and testing compounds have been described previously (Scudiero et al., Cancer Res. 1988, 48:4827-4833; Stinson et al., Anticancer Res.; Myers et al., Electrophoresis 1997, 18:647-653). Cells are plated on day 0 at a density individualized for each cell line so that they will generally be sub-confluent at the end of the assay period. On day 1, a compound is added in the format for a duplicate-well, 5-dose, ten-fold interval dose response study.
No-drug, no-cell and no-growth controls are included. On day 3 the cells are processed for staining with sulforhodamine B (SRB), which reflects the amount of cell mass present at the end of a 48 hour exposure to the test agent. From dose response curves based on the SRB data, various parameters can be determined. The one used in the present study is the G15o, defined as the concentration of compound required to inhibit growth of the cell line by 50%. More precisely, the quantity used in the calculation to be described is the potency measure -log{GI50}.
Activity database (A). Table IA, consisting of the growth inhibition (GI5o) values for the 60 cell lines and 24 compounds, was created from the NCI-DTP in vitro cancer screen database. This subset of compounds was selected from the larger 23,000 compound database available from the DTP. The compounds were selected on the basis of their known mechanism of action and chemical structure. The average potency—log{GI50} was extracted from the comma-delimited text files available through the Web at http://www.nci.nih.gov/intra/lmp/jnwbio.htmrl. Subsequently, these log{GI5o} values were inspected manually and classified as indicating either Low, Medium or High sensitivity to each compound.

CC[C@]1(O)C[C@@H]2CN(CCc3c([nH]c4ccccc34)[C@@](C(=O)OC)(c3cc4c(cc3OC)N(C)[C@H]3[C@@](O)(C(=O)OC)[C@H](OC(C)=O)[C@]5(CC)C=CCN6CC[C@]43[C@@H]65)C2)C1 [Vinblastine sulfate]
classification of cell line as Low(1), Medium(2) or High(3) sensitivity to compound (CNS SF-539 CL12016): 2 | classification of cell line as Low(1), Medium(2) or High(3) sensitivity to compound (CNS SNB-19 (CL12002)): 2 | classification of cell line as Low(1), Medium(2) or High(3) sensitivity to compound (CNS U251(I) CL12009): 2 | classification of cell line as Low(1), Medium(2) or High(3) sensitivity to compound (Colon HCC-2998 (CL4002)): 2 | classification of cell line as Low(1), Medium(2) or High(3) sensitivity to compound (Colon HCT-15 CL4015): 1 | classification of cell line as Low(1), Medium(2) or High(3) sensitivity to compound (Colon KM12 (CL4017)): 2 | classification of cell line as Low(1), Medium(2) or High(3) sensitivity to compound (Colon SW-620 (CL4009)): 2 | classification of cell line as Low(1), Medium(2) or High(3) sensitivity to compound (Leukemia CCRF-CEM(I) (CL7003)): 2 | classification of cell line as Low(1), Medium(2) or High(3) sensitivity to compound (Leukemia HL-60(I) (CL7008)): 3 | classification of cell line as Low(1), Medium(2) or High(3) sensitivity to compound (Leukemia MOLT-4 (CL7006)): 2 | classification of cell line as Low(1), Medium(2) or High(3) sensitivity to compound (Leukemia SR CL7019): 3 | classification of cell line as Low(1), Medium(2) or High(3) sensitivity to compound (Melanoma M14 (CL10014)): 2 | classification of cell line as Low(1), Medium(2) or High(3) sensitivity to compound (Melanoma MALME-3M CL10002): 2 | classification of cell line as Low(1), Medium(2) or High(3) sensitivity to compound (Melanoma SK-MEL-2 (CL10005)): 2 | classification of cell line as Low(1), Medium(2) or High(3) sensitivity to compound (Melanoma SK-MEL-5 (CL10007)): 3 | classification of cell line as Low(1), Medium(2) or High(3) sensitivity to compound (Melanoma SK-MEL-28 (CL10008)): 2 | classification of cell line as Low(1), Medium(2) or High(3) sensitivity to compound (Melanoma UACC-62 (CL10020)): 3 | classification of cell line as Low(1), Medium(2) or High(3) sensitivity to compound (NSCLC A549/ATCC (CL1004)): 2 | classification of cell line as Low(1), Medium(2) or High(3) sensitivity to compound (NSCLC EKVX (CL1008)): 1 | classification of cell line as Low(1), Medium(2) or High(3) sensitivity to compound (NSCLC HOP-62 (CL1026)): 2 | classification of cell line as Low(1), Medium(2) or High(3) sensitivity to compound (NSCLC HOP-92 (CL1029)): 2 | classification of cell line as Low(1), Medium(2) or High(3) sensitivity to compound (NSCLC NCI-H226 CL1013): 2 | sensitivity class NSCLC NCI-H23(I) CL1001 (cell line NSCLC NCI-H23(I), CL1001): 2 | sensitivity class NSCLC NCI-H332M CL1017 (cell line NSCLC NCI-H332M, CL1017): 2 | sensitivity class NSCLC NCI-H460 CL1021 (cell line NSCLC NCI-H460, CL1021): 2 | sensitivity class NSCLC NCI-H522 CL1003 (cell line NSCLC NCI-H522, CL1003): 3 | sensitivity class Ovarian IGROV1 CL6010 (cell line Ovarian IGROV1, CL6010): 2 | sensitivity class Ovarian OVCAR-3 CL6001 (cell line Ovarian OVCAR-3, CL6001): 3 | sensitivity class Ovarian OVCAR-8 CL6005 (cell line Ovarian OVCAR-8, CL6005): 2 | sensitivity class Ovarian SK-OV-3 CL6011 (cell line Ovarian SK-OV-3, CL6011): 2 | sensitivity class Renal 786-O CL9018 (cell line Renal 786-O, CL9018): 2 | sensitivity class Renal CAKI-1 CL9015 (cell line Renal CAKI-1, CL9015): 2 | sensitivity class Renal RXF-393 CL9016 (cell line Renal RXF-393, CL9016): 2 | sensitivity class Renal SN12C CL9008 (cell line Renal SN12C, CL9008): 2 | sensitivity class Renal TK10 CL9024 (cell line Renal TK10, CL9024): 1 | sensitivity class Renal UO-31 CL9004 (cell line Renal UO-31, CL9004): 1

CC(=O)O[C@H]1C(=O)[C@@]2(C)[C@H]([C@H](OC(=O)c3ccccc3)[C@]3(O)C[C@H](OC(=O)[C@H](O)[C@@H](NC(=O)c4ccccc4)c4ccccc4)C(C)=C1C3(C)C)[C@]1(OC(C)=O)CO[C@@H]1C[C@@H]2O [TAXOL, paclitaxel, reference compound]
classification of cell line as Low(1), Medium(2) or High(3) sensitivity to compound: 2 and 1 and 3 | sensitivity class NSCLC NCI-H23(I) CL1001: 2 | sensitivity class NSCLC NCI-H332M CL1017: 2 | sensitivity class Ovarian IGROV1 CL6010: 2 | sensitivity class Ovarian OVCAR-4 CL6002: 1 | sensitivity class Ovarian OVCAR-8 CL6005: 2 | sensitivity class Ovarian SK-OV-3 CL6011: 2 | sensitivity class Prostate DU-145 CL11003: 2 | sensitivity class Prostate PC-3(I) CL11001: 2 | sensitivity class Renal 786-O CL9018: 2 | sensitivity class Renal ACHN CL9023: 1 | sensitivity class Renal CAKI-1 CL9015: 1 | sensitivity class Renal RXF-393 CL9016: 2 | sensitivity class Renal SN12C CL9008: 2 | sensitivity class Renal UO-31 CL9004: 1 | sensitivity class of the cell line to the compound (1 Low, 2 Medium, 3 High): 1 and 3 and 2

— patent US20020051978A1, “Methods and compositions for the identification, assessment, prevention and therapy of human cancers” (priority 2000, published 2002)
